Results reported in patent publication US20050101783A1, “N-(heterocycle-methyl)alkylamine derivative, process for producing the same, and bactericide” (priority 2000, published 2005).

Tests used:
cucumber gray mold = experiment: Preventive effect test of cucumber gray mold (wettable powder sprayed on potted cucumber, preventive value); format: in vivo; conditions: wettable powder suspended at 250 mg/l, sprayed on potted cucumber at 100 l/10 a; morbidity investigated 4th to 6th day after inoculation
Protocol: (Preventive Effect Test of Cucumber Gray Mold)
The wettable powders obtained by using each compound were diluted with water and were suspended at a predetermined concentration (250 mg/l) and the solution was sprayed over the first to second leaf stage-cucumber (variety: “Sagamihanpakufushinari”) cultivated by using a square plastic pot (size: 6.4 cm×6.4 cm) at a rate of 100 1/10 a.
After the sprayed leaves were air-dried, a paper disk where the solution of the spore of the gray mold suspended with water was impregnated was put on the aforementioned sprayed leaves, and the leaves were contracted in a glass greenhouse (temperature: 20 to 24° C. and relative humidity: 20 to 70 RH). The morbidity rate was investigated based on the following investigation standard on 4th to 6th day after the inoculation and the preventive value was calculated according to the following formula 2.

Venturia inaequalis = experiment: Antibacterial test to various phytopathogen, PDA plate culture, suppression of mold elongation; format: cell-based; conditions: final concentration 100 mg/l, 1 to 3 days; for inhibition at 100 µg/mL: Venturia inaequalis, read-out: Inhibition Rate of Growth (suppression rate of the mold elongation, 5-step grade) V.i.
Protocol: (§1) (Antibacterial Test to Various Phytopathogen)
(§2) In the test examples, a test was performed on the antibacterial of the compounds according to the present invention to various phytopathogenic molds in the methods later described.
(§3) The compounds of 10 mg were each weighed and they were each dissolved in dimethylsulfoxide of 1 ml. The solution of 0.6 ml was added to PDA culture medium (potato-dextrose-agar culture medium) of 60 ml at about 60° C, the solutions were well mixed in an Erlenmeyer flask of 100 ml, and the solution was poured into a Schale and was solidified therein to prepare a plate culture containing the compound according to the present invention of final concentration of 100 mg/l.
(§4) On the other hand, the sample molds on the plate cultured beforehand were punched by a cork borer of diameter of 4 mm, and they were inoculated on the plate culture containing the aforementioned chemical material. After the inoculation, the molds were inoculated at the appropriate growth temperatures of each mold (for the appropriate growth temperatures, for example, the Reference, LIST OF CULTURE 1996 MICROORGANISM 10th edition published by Institute for Fermentation can be referred to.) for 1 to 3 days, the growth rates of the molds were evaluated by measuring the diameter of a colony. The growth rate of the mold thus obtained on the plate culture containing the chemical material is compared with the growth rate of the mold in the non-addition area of the chemical material to find the suppression rate of the mold elongation by the following formula 3. R=100 (dc−dt)/dc (Formula 3) [wherein, R is the suppression rate of the mold elongation (%), dc is the diameter of a colony on an untreated plate and dt is the diameter of a colony on a chemical-treated plate, respectively.]
(§5) • 5: Mold whose suppression rate of the mold elongation is • 90% or higher • 4: Mold whose suppression rate of the mold elongation is less than 90% and 70% or higher • 3: Mold whose suppression rate of the mold elongation is less than 70% and 40% or higher • 2: Mold whose suppression rate of the mold elongation is less than 40% and 20% or higher • 1: Mold whose suppression rate of the mold elongation is less than 20%
V. i.: Venturia inaequalis

[1] = test system: Erysiphe graminis f. sp tritici; experiment: Preventive effect test of wheat powdery mildew (wettable powder sprayed on potted wheat, preventive value); format: in vivo; conditions: wettable powder suspended at 250 mg/l, sprayed on potted wheat at 100 l/10 a; morbidity investigated 9th to 14th day after inoculation
Protocol: (Preventive Effect Test of Erysiphe graminis f. sp […])
The wettable powders obtained by using each compound were diluted with water and were suspended at a predetermined concentration (250 mg/l) and the solution was sprayed over the first to second leaf stage-wheat (variety. Agriculture and Forestry No. 64) cultivated by using a square plastic pot (size: 6.4 cm×6.4 cm) at a rate of 100 1/10 a (are).
After the sprayed leaves were air-dried, the suspension of the spore of Erysiphe graminis f. sp tritici germ sampled from the contracted leaves were sprayed and inoculated over the sprayed leaf after air-dried, the leaves were kept at 20 to 24° C. under a high-humidity condition for 24 hours, then, the leaves were subjected to still standing in a greenhouse (temperature: 20 to 24° C. and relative humidity: 20 to 70 RH). The morbidity rate was investigated based on the following investigation standard on 9th to 14th day after the inoculation and the preventive value was calculated according to the following formula 1.

[2] = test system: Pseudocercosporella herpotrichoides; experiment: Antibacterial test to various phytopathogen, PDA plate culture, suppression of mold elongation; format: cell-based; conditions: final concentration 100 mg/l, 1 to 3 days; for inhibition at 100 µg/mL: Oculimacula yallundae, read-out: Inhibition Rate of Growth (suppression rate of the mold elongation, 5-step grade) P.h.
Protocol: as §1, §2, §3, §4, §5
(§6) In addition, the meanings of the abbreviated letters in Table 22 are as follows: • B. c.; Botrytis cinerea • P. h.; Pseudocercosporella herpotrichoides • M. n.; Microdohium nivale • L. n.; Leptosphaeria nodorum

Botrytis cinerea = experiment: as above; format: cell-based; conditions: final concentration 100 mg/l, 1 to 3 days; for inhibition at 100 µg/mL: Botrytis cinerea, read-out: Inhibition Rate of Growth (suppression rate of the mold elongation, 5-step grade) B.c.
Protocol: as §1, §2, §3, §4, §5, §6

Microdohium nivale = experiment: as above; format: cell-based; conditions: final concentration 100 mg/l, 1 to 3 days; for inhibition at 100 µg/mL: read-out: Inhibition Rate of Growth (suppression rate of the mold elongation, 5-step grade) M.n.
Protocol: as §1, §2, §3, §4, §5, §6

Leptosphaeria nodorum = experiment: as above; format: cell-based; conditions: final concentration 100 mg/l, 1 to 3 days; for inhibition at 100 µg/mL: Parastagonospora nodorum, read-out: Inhibition Rate of Growth (suppression rate of the mold elongation, 5-step grade) L.n.
Protocol: as §1, §2, §3, §4, §5, §6

cucumber powdery mildew = experiment: Preventive effect of cucumber powdery mildew (wettable powder sprayed on potted cucumber, preventive value); format: in vivo; conditions: wettable powder suspended at 100 mg/l, sprayed on potted cucumber at 100 l/10 a; morbidity investigated 9th to 14th day after inoculation
Protocol: (Preventive Effect of Cucumber Powdery Mildew)
The wettable powders obtained by using each compound were diluted with water and were suspended at a predetermined concentration (100 mg/l) and the solution was sprayed over the first to second leaf stage-cucumber (variety: “Sagamihanpakufushinari”) cultivated by using a square plastic pot (size: 6.4 cm×6.4 cm) at a rate of 100 1/10 a.
After the sprayed leaves were air-dried, the spore was inoculated over the aforementioned air-dried leaves from the contracted leaves with a brush, and the contraction was performed in a glass greenhouse (temperature: 20 to 24° C. and relative humidity: 20 to 70 RH). The morbidity rate was investigated based on the same investigation standard as that in the preventive effect test of the cucumber gray mold on 9th to 14th day after the inoculation, and the preventive value was calculated according to the aforementioned formula 2.

Candida albicans = experiment: Antibacterial test to Candida albicans (96-hole plate, IC80); format: cell-based; conditions: cultivated at 35° C. for 72 hours, absorbance at 540 nm
Protocol: (Antibacterial Test to Candida albicans) In the test examples, a test was performed on the antibacterial of the compounds according to the present invention to Candida albicans in the methods later described. The culture dilution train containing each compound was prepared by using a 96-hole flat-bottomed plate, and the inoculation mold solution controlled at 1 to 5×10^3 cell/ml beforehand of 10 μl was added to each hole on the plate. After the inoculation, the molds were cultivated at 35° C. for 72 hours, and the propagation of the mold was evaluated by measuring the absorbance at 540 nm. With such a test, the propagation of the mold in this case was compared with the propagation of the mold in the chemical-free test area to find the concentration of a compound where the propagation rate of the mold is suppressed by 80% as IC 80 (80% growth inhibition concentration).

Aspergillus fumigatus = experiment: Antibacterial test to Aspergillus fumigatus (96-hole plate, IC80); format: cell-based; conditions: YNB culture with 0.22% low melting point-agarose, 1×10^4 cell/ml, 25° C., 72 hours, absorbance at 620 nm
Protocol: (Antibacterial Test to Aspergillus fumigatus)
In the test example, a test was performed on the antibacterial of the compounds according to the present invention to Aspergillus fumigatus in the method later described.
Aspergillus fumigatus was cultivated in Sabouraud's agar at 37° C. for 3 days, after the spores to be used for the test were formed, the spore suspension was prepared. The spore suspension was suspended in YNB culture to which a 0.22% low melting point-agarose was added so as to allow the final concentration to be 1×10^4 cell/ml, and the solution was poured into each hole on a 96-hole flat-bottomed plate. Next, the dilution trains using each of the compounds according to the present invention were added, the solution was cultivated at 25° C. for 72 hours, and the propagation rate of the mold was evaluated by measuring the absorbance at 620 nm. With such a test, the propagation rate of the mold in the chemical-free test area was compared with this case to find the concentration of the compound where the propagation rate of the mold is suppressed by 80% as IC 80 (80% growth inhibition concentration).

Row | SMILES | Preventive Value (%) [1] | inhibition at 100 µg/mL (Venturia inaequalis) | inhibition at 100 µg/mL [2] | inhibition at 100 µg/mL (Botrytis cinerea) | inhibition at 100 µg/mL (Microdohium nivale) | inhibition at 100 µg/mL (Leptosphaeria nodorum) | 80% Growth Inhibition Concentration (IC80) (Candida albicans) | 80% Growth Inhibition Concentration (IC80) (Aspergillus fumigatus) | further results
1 | CC(CCc1ccc(OC(F)(F)F)cc1)CN(C)Cc1ccc(Cl)nc1 (stereo not drawn) [Compound I-60] | 100% | – | – | – | – | – | – | – | Preventive Value (%) (cucumber gray mold): 100%; Inhibition Rate of Growth (suppression rate of the mold elongation, 5-step grade) V.i. (Venturia inaequalis): 5 (Mold whose suppression rate of the mold elongation is • 90% or higher); Inhibition Rate of Growth (suppression rate of the mold elongation, 5-step grade) P.h. [2]: 5 (Mold whose suppression rate of the mold elongation is • 90% or higher); Inhibition Rate of Growth (suppression rate of the mold elongation, 5-step grade) B.c. (Botrytis cinerea): 5 (Mold whose suppression rate of the mold elongation is • 90% or higher); Inhibition Rate of Growth (suppression rate of the mold elongation, 5-step grade) M.n. (Microdohium nivale): 5 (Mold whose suppression rate of the mold elongation is • 90% or higher); Inhibition Rate of Growth (suppression rate of the mold elongation, 5-step grade) L.n. (Leptosphaeria nodorum): 5 (Mold whose suppression rate of the mold elongation is • 90% or higher)
2 | CC(C)(CNCc1ccc(Cl)nc1)Cc1ccc(OC(F)(F)F)cc1 [Compound I-45, 6-chloro-N-[2,2-dimethyl-3-(4-trifluoromethoxyphenyl)propyl]-3-pyridylmethylamine] | 100% | ≥ 90% | ≥ 90% | ≥ 90% | ≥ 90% | ≥ 90% | – | – | Preventive Value (%) (cucumber gray mold): 100%; Preventive Value (%) (cucumber powdery mildew): 100%
3 | CC(CCc1cc(Cl)cc(Cl)c1)CN(C)Cc1ccc(Cl)nc1 (stereo not drawn) [Compound I-57] | 100% | – | – | – | – | – | – | – | Inhibition Rate of Growth (suppression rate of the mold elongation, 5-step grade) V.i. (Venturia inaequalis): 5 (Mold whose suppression rate of the mold elongation is • 90% or higher); Inhibition Rate of Growth (suppression rate of the mold elongation, 5-step grade) P.h. [2]: 5 (Mold whose suppression rate of the mold elongation is • 90% or higher); Inhibition Rate of Growth (suppression rate of the mold elongation, 5-step grade) B.c. (Botrytis cinerea): 5 (Mold whose suppression rate of the mold elongation is • 90% or higher); Inhibition Rate of Growth (suppression rate of the mold elongation, 5-step grade) M.n. (Microdohium nivale): 5 (Mold whose suppression rate of the mold elongation is • 90% or higher); Inhibition Rate of Growth (suppression rate of the mold elongation, 5-step grade) L.n. (Leptosphaeria nodorum): 5 (Mold whose suppression rate of the mold elongation is • 90% or higher); Preventive Value (%) (cucumber powdery mildew): 100%
4 | CC(C)(CNCc1c[nH]cn1)Cc1ccc(F)cc1F [Compound I-12] | – | – | – | – | – | – | 18 µg/mL | – | –
5 | CC(C)(CNCc1cnccn1)Cc1ccc(C(C)(C)C)cc1 [Compound I-4, N-[3-(4-t-butylphenyl)-2,2-dimethylpropyl]-2-pyrazylmethylamine] | – | – | – | – | – | – | 75 µg/mL | 75 µg/mL | –
6 | CC(C)(CNCc1ccncn1)Cc1ccc(C(C)(C)C)cc1 [Compound I-10] | – | – | – | – | – | – | 75 µg/mL | 38 µg/mL | –
7 | CN(Cc1ccc(Cl)nc1)CC(C)(C)Cc1ccc(C(C)(C)C)cc1 [Compound I-18, N-[3-(4-t-butylphenyl)-2,2-dimethylpropyl]-6-chloro-N-methyl-3-pyridylmethylamine] | 100% | ≥ 90% | ≥ 90% | ≥ 90% | ≥ 90% | ≥ 90% | – | – | –
8 | CC(CCc1cccc(OC(F)(F)F)c1)CN(C)Cc1ccc(Cl)nc1 (stereo not drawn) [Compound I-58, 6-chloro-N-[2-methyl-4-(3-trifluoromethoxyphenyl)butyl]-N-methyl-3-pyridylmethylamine] | 100% | ≥ 90% | ≥ 90% | ≥ 90% | ≥ 90% | ≥ 90% | – | – | –
9 | Cn1cc(CNCC(C)(C)Cc2ccc(C(C)(C)C)cc2)cn1 [Compound I-6] | – | – | – | – | – | – | 18 µg/mL | 9 µg/mL | –
10 | CC(C)(CNCc1c[nH]cn1)Cc1ccc(C(C)(C)C)cc1 [Compound I-11] | – | – | – | – | – | – | 150 µg/mL | – | –
